ChEMBL document CHEMBL1151489, “N-(quinuclidin-3-YL)-1,8,-naphthalimides with 5-HT3 receptor antagonist and 5-HT4 receptor agonist properties” (Bioorg Med Chem Lett, 1993)

Legend:
[1] = target: Serotonin 3 (5-HT3) receptor (Rattus norvegicus) (UniProt P35563+Q9JJ16); assay: In vivo 5-hydroxytryptamine 3 receptor antagonist activity by antagonism of the von Bezold-Jarisch (B-J) reflex in anesthetized rats, (i.v.); assay type: functional, organism-based
[2] = target: 5-hydroxytryptamine receptor 4 (Rattus norvegicus, UniProt Q62758); assay: 5-hydroxytryptamine 4 receptor agonist activity in the rat esophageal muscularis mucosae; assay type: functional
5-hydroxytryptamine receptor 4, sequence (Q62758 whole entry): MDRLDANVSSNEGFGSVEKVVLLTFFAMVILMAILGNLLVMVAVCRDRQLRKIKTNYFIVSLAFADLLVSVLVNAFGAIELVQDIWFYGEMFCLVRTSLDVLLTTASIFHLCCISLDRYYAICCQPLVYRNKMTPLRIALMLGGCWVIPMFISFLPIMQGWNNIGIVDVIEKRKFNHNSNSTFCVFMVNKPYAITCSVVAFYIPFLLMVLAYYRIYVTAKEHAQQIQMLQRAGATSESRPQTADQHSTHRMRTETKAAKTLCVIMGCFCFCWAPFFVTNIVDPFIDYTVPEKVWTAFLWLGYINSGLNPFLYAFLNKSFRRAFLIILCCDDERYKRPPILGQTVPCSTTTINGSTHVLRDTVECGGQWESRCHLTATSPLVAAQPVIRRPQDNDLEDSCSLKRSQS

[3] = target: T1, Serotonin 3 (5-HT3) receptor (Rattus norvegicus, UniProt P35563+Q9JJ16); assay: Binding affinity to 5-hydroxytryptamine 3 receptor was determined in rat cerebro cortical membranes using [3H]quipazine.; assay type: cell membranes
T1 sequence (P35563 whole entry): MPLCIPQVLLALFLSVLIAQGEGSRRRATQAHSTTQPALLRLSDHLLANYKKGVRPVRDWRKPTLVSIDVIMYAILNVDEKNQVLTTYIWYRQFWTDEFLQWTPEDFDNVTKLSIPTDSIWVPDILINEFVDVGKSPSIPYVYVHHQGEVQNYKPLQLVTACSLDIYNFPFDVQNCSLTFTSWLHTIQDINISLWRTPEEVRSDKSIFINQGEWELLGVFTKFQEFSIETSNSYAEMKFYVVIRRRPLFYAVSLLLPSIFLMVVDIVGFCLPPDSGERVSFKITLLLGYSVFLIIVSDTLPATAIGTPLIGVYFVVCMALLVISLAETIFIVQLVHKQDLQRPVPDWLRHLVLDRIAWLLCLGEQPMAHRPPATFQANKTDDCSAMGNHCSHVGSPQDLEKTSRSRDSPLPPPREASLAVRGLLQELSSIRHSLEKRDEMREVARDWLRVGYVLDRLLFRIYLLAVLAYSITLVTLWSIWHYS
T1 sequence (Q9JJ16 whole entry): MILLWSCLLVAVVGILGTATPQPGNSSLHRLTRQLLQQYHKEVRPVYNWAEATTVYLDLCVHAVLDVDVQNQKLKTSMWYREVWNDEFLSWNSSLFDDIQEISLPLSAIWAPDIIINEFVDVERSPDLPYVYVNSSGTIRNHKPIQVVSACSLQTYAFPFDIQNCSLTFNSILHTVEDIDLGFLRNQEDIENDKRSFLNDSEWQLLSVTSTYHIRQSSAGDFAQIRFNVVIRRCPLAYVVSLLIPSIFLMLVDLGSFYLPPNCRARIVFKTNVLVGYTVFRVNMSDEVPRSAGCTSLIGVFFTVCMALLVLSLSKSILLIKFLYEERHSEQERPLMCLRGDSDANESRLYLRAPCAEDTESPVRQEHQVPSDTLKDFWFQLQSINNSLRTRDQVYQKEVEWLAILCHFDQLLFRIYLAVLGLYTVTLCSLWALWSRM

[4] = target: 5-hydroxytryptamine receptor 4 (Rattus norvegicus) (UniProt Q62758); assay: lntrinsic activity relative to 5-HT receptor; assay type: functional
5-hydroxytryptamine receptor 4 (Rattus norvegicus), sequence (Q62758 whole entry): as the sequence (Q62758 whole entry) above

`Nc1c(Cl)cc2c3c(cccc13)C(=O)N([C@H]1CN3CCC1CC3)C2=O` was tested, and the Inhibitory dose (ID50) [1] was 0.0045 mg/kg, the EC50 [2] was > 1000 nM and the Ki [3] was 0.794 nM.

For `CN1CCC(N2C(=O)c3cccc4c(N)c(Cl)cc(c34)C2=O)CC1`, the Inhibitory dose (ID50) [1] was 0.288 mg/kg, the Activity [4] was 0.9 and the EC50 [2] was 31.6 nM. It also gave a Ki [3] of 39.8 nM.

In the case of `COc1cc(N)c(Cl)cc1C(=O)N[C@@H]1CN2CCC1CC2`, the Activity [4] is reported as 0.9 and the EC50 [2] is reported as 63.1 nM.

For `COc1cc(N)c(Cl)cc1C(=O)N[C@H]1CN2CCC1CC2` [(R)ZACOPRIDE], the Activity [4] was 0.9 and the EC50 [2] was 501 nM.

`NCCc1c[nH]c2ccc(O)cc12` gave an Activity [4] of 1.

`Nc1c(Cl)cc2c3c(cccc13)C(=O)N([C@@H]1CN3CCC1CC3)C2=O` was tested, and the Inhibitory dose (ID50) [1] was 0.077 mg/kg, the Activity [4] was 0.8 and the EC50 [2] was 12.6 nM. It also gave a Ki [3] of 10 nM.
